How the values were obtained:
Format in all cases: cell-based, mouse
[1] = tested on: ISG54 promoter activity in RAW-ISG54 reporter cells; assay: IFN response assay, RAW-ISG54 luciferase reporter cells; conditions: Figure 6A, in complexes with pDNA 3:24 (w:w), overnight
Protocol: (§1) The effect of the pDNA:TLR7-TLR2 polyamine molecules complexes on inducing an interferon response was examined. pDNA:TLR7-TLR2 polyamine molecules mixtures (pDNA:TLR7-TLR2 polyamine molecules ratio 3:24, w:w) in serum-free medium or 5% glucose were prepared as described above and added to IFN reporter cells. Luciferase reporter cell lines were used to assay interferon response. A plasmid containing an interferon-inducible luciferase reporter gene was introduced into mouse RAW 264.7 macrophages and mouse B16 melanoma cells, giving rise to the RAW-ISG54 and B16-ISG54 reporter cell lines respectively. Expression of the luciferase reporter gene by the plasmid is under the control of an interferon-inducible promoter (I-ISG54) comprising five interferon-stimulated response elements (ISRE) and the minimal promoter of the human ISG-54K (Interferon Stimulation of a Gene encoding a 54 kDa protein) gene. The ISG-54K gene is induced by interferon regulatory factor 3 (IRF3), which has a key involvement in […] responses (Grandvaux et al. 2002) and the minimal promoter of the human ISG-54K gene contains two ISRE sites and fully inducible by type I interferons (IFN-α and IFN-β) and interferon regulatory factors (IRFs) (Wathelet et al. 1988; Grandvaux et al. 2002).
(§2) The RAW-ISG54 and B16-ISG54 reporter cell lines were seeded onto 96 well microtiter plates at 100,000 cells per well and 75,000 cells per well respectively. […] The induced luciferase expression was assessed in the reporter cell lines using a coelenterazine-base luminescence assay reagent, the Quanti-LucTM (InvivoGen). Secreted luciferase activity was determined by bioluminescence quantification of the cell culture media using a microplate luminometer (FLUOstar OPTIMA from BMG Labtech).

B16-F1 cells = assay: Cell transfection with SEAP plasmid, B16-F1; conditions: Figure 5B; in complex with pVitro14 LGFP SEAP plasmid, 48 hours, SEAP reporter gene expression
Protocol: The TLR7-TLR2 molecules were tested for their ability as polyamine molecules to transport plasmid DNA (pDNA) into cells. The pVitro14 LGFP SEAP plasmid (InvivoGen) was complexed to TLR7-TLR2 polyamine molecules and to the control cationic lipid transfection agent, LyoVec™ (InvivoGen). The human HEK293 (ATCC, CRL-1573) and mouse B16-F1 melanoma (ATCC, CRL-6323) cell lines were seeded at a density of 50 000 cells/well and 20 000 cells/well respectively, in the absence or presence of different volumes of the plasmid encoding for the SEAP protein in complex with TLR7-TLR2 polyamine molecules for 48 hours at 37°C and 10% CO2. Transfection efficiency was assessed by measuring SEAP reporter gene expression: 20 µl of supernatant was sampled and mixed with 180 µl of QUANTI-Blue™ Detection (InvivoGen). In the presence of alkaline phosphatase SEAP, the color of QUANTI-Blue™ changes from pink to purple/blue. The intensity of the blue hue reflects the activity of SEAP. The levels of SEAP secretion were determined quantitatively by reading the OD at 620-655 nm using a spectrophotometer, iMark™ Microplate Reader (BIO-RAD).

[2] = tested on: ISG54 promoter activity in B16-ISG54 reporter cells; assay: IFN response assay, B16-ISG54 luciferase reporter cells; conditions: Figure 6B, in complexes with pDNA 3:24 (w:w), overnight
Protocol: as §1, §2

CCCCCCCCCCCCCCCC(=O)OCC(CSC[C@H](N)C(=O)N[C@@H](COC(=O)c1ccc(Cn2c(O)nc3c(N)nc(NCCCC)nc32)cc1)C(=O)NCCCNCCCCNCCCN)OC(=O)CCCCCCCCCCCCCCC (stereo partly drawn) [CL514, (6R,9S)-6,23-diamino-9-((4-((6-amino-2-(butylamino)-8-hydroxy-9H-purin-9-yl)methyl)benzoyloxy)methyl)-7,10-dioxo-4-thia-8,11,15,20-tetraazatricosane-1,2-diyl dipalmitate]
ability to induce an IFN response (ISG54 promoter activity) in RAW-ISG54 reporter cells [1]: induce an IFN response in RAW-ISG54 reporter cells | ability to transfect B16-F1 cells (B16-F1 cells): transfect B16-F1 cells | ability to induce an IFN response (ISG54 promoter activity) in B16-ISG54 reporter cells [2]: induce an IFN response in B16-ISG54 reporter cells

CCCCCCCCCCCCCCCC(=O)OCC(CSC[C@H](N)C(=O)N[C@@H](CCC(=O)NCCCNCCCCNCCCN)C(=O)Nc1ccc(Cn2c(O)nc3c(N)nc(NCCCC)nc32)cc1)OC(=O)CCCCCCCCCCCCCCC (stereo partly drawn) [CL527, (6R,9S)-6,25-diamino-9-(4-((6-amino-2-(butylamino)-8-hydroxy-9H-purin-9-yl)methyl)phenylcarbamoyl)-7,12-dioxo-4-thia-8,13,17,22-tetraazapentacosane-1,2-diyl dipalmitate]
ability to induce an IFN response (ISG54 promoter activity) in RAW-ISG54 reporter cells [1]: induce an IFN response in RAW-ISG54 reporter cells | ability to transfect B16-F1 cells (B16-F1 cells): transfect B16-F1 cells | ability to induce an IFN response (ISG54 promoter activity) in B16-ISG54 reporter cells [2]: induce an IFN response in B16-ISG54 reporter cells

CCCCCCCCCCCCCCCC(=O)OCC(CSC[C@H](N)C(=O)NCCCNCCCCNCCCNC(=O)CNC(=O)c1ccc(Cn2c(O)nc3c(N)nc(NCCCC)nc32)cc1)OC(=O)CCCCCCCCCCCCCCC (stereo partly drawn) [CL553, (20R)-20-amino-1-(4-((6-amino-2-(butylamino)-8-hydroxy-9H-purin-9-yl)methyl)phenyl)-1,4,19-trioxo-22-thia-2,5,9,14,18-pentaazapentacosane-24,25-diyl dipalmitate]
ability to induce an IFN response (ISG54 promoter activity) in RAW-ISG54 reporter cells [1]: induce an IFN response in RAW-ISG54 reporter cells | ability to transfect B16-F1 cells (B16-F1 cells): transfect B16-F1 cells | ability to induce an IFN response (ISG54 promoter activity) in B16-ISG54 reporter cells [2]: induce an IFN response in B16-ISG54 reporter cells

— patent EP2769738B1, “Conjugated TLR7 and/or TLR8 and TLR2 polycationic agonists” (Invivogen, priority 2013, dated 2014)
